Data reported in patent publication US9102648B1, “Bioavailable diacylhydrazine ligands for modulating the expression of exogenous genes via an ecdysone receptor complex” (Intrexon Corporation, priority 2003, dated 2015).
Converted amounts (≈) assume the structure as drawn. Where two headings read alike, the source gives them in different places.

Columns and labels:
[1] = Partition coefficient Log (D), 1-octanol / pH 7.4 buffer; assay type: physicochemical; conditions: water-saturated 1-octanol / pH 7.4 buffer, room temperature
Method in brief: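 Octanol/pH 7.4 buffer partition at room temperature, compound added from 10 mM DMSO stock with 100 μM testosterone internal control; vortexed 60 min, centrifuged. Both layers diluted and quantified by LC/MS; Log D taken as log of the peak-area ratio.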

[2] = Bi-directional permeability, CACO-2; assay type: in vitro ADME
Method in brief: (§1)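 Caco-2 monolayers on Transwell membranes dosed at 10 μM, apical or basolateral side, in HBSS with 10 mM HEPES, 15 mM glucose, pH 7.0±0.2; 37° C. Receiver sampled at 1 and 2 hours, quantified by LC/MS; duplicate determinations, monolayer integrity checked by Lucifer yellow flux.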

Caco-2 monolayers = test: Bi-directional permeability, CACO-2; assay type: in vitro ADME; conditions: for Absorption Potential: classification from Papp(A-to-B)
Method in brief: as §1

[3] = system: mutated ecdysone receptor-based gene switch; test: In vivo SEAP induction, ligand by IP injection; parameters: species or system C57BL/6 mouse; conditions: for Secreted Alkaline Phosphatase (percentage of GS ™-E ligand induction) Day 2 / Secreted Alkaline Phosphatase (percentage of GS ™-E ligand induction) Day 3 / Secreted Alkaline Phosphatase (percentage of GS ™-E ligand induction) Day 11: mouse serum; for Secreted Alkaline Phosphatase (percentage of GS ™-E ligand induction) Day 2: IP 2.6 μmol ligand 3 days after electroporation, day 2 after ligand; for Secreted Alkaline Phosphatase (percentage of GS ™-E ligand induction) Day 3 / Secreted Alkaline Phosphatase (percentage of GS ™-E ligand induction) Day 11: IP 2.6 μmol ligand; for Secreted Alkaline Phosphatase (percentage of GS ™-E ligand induction) Day 3: day 3 after ligand; for Secreted Alkaline Phosphatase (percentage of GS ™-E ligand induction) Day 11: day 11 after ligand
Method in brief: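 Gene switch plasmids (receptor under CMV promoter) electroporated into quadriceps of C57BL/6 mice; 3 days later ligand given IP at 2.6 μmol or 26 nmol in 50 μL DMSO per mouse. Serum SEAP measured by chemiluminescence 2-11 days after dosing, averaged over four animals, expressed as % of GS™-E ligand induction.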

[4] = Aqueous equilibrium solubility in pH 7.4 buffer; conditions: pH 7.4 aqueous phosphate buffer, pH 7.4, aqueous buffer, thermodynamic from solid
[5] = Determination of LC Log P (experimental); assay type: physicochemical; conditions: for chromatographic logP: from LC retention time against log P standards, read-out: LC LogP (exp); for logP: diacylhydrazine log P standards (log P known experimentally)
Protocol: Liquid chromatography retention times (RT) are measured for each substance using the conditions described below. A linear equation is derived relating RT to log P is developed from the data for the log P standards. The log P for the test compound is calculated from the log P/retention time equation.

[6] = Caco-2, pH 7, Percent Recovery Blank
[7] = human, Caco-2, pH 7, Papp, A-to-B Avg
[8] = human, Caco-2, pH 7, Papp, A-to-B Rep. 1
[9] = human, Caco-2, pH 7, Papp, A-to-B Rep. 2
[10] = human, Caco-2, pH 7, Papp, B-to-A Avg
[11] = human, Caco-2, pH 7, Papp, B-to-A Rep. 1
[12] = human, Caco-2, pH 7, Papp, B-to-A Rep. 2
[13] = human, Caco-2, pH 7, Percent Recovery A-to-B
[14] = human, Caco-2, pH 7, Percent Recovery B-to-A
[15] = Caco-2, pH 7, cell-free (blank) membrane, 10 μM, read-out: Papp Blank
[16] = human, Caco-2, pH 7, Caco-2, 10 μM, average of 2 replicates, read-out: Papp, A-to-B Avg
[17] = human, Caco-2, pH 7, Caco-2, 10 μM, replicate 2, read-out: Papp, A-to-B Rep. 2
[18] = human, Caco-2, pH 7, Caco-2, 10 μM, replicate 2, read-out: Papp, B-to-A Rep. 2
[19] = classification from Papp(B-to-A) and ratio

CCc1ccc(C(=O)NN(C(=O)c2cc(C)cc(C)c2)C(C)(C)C)c(F)c1 [RG-101523, 3,5-Dimethyl-benzoic acid N-tert-butyl-N′-(4-ethyl-2-fluoro-benzoyl)-hydrazide]
Log(D) Octanol/pH 7.4 [1]: 2.9 | Papp at 2 h, 10 µM ([2]; Caco-2, pH 7, Papp Blank): 29.4 ×10⁻⁶ cm/s | recovery at 2 h, 10 μM [2, 6]: 95% | efflux ratio at 2 h, 10 μM ([2]; human, Caco-2, pH 7): 1 | Papp A→B at 2 h, 10 µM [2, 7]: 25.4 ×10⁻⁶ cm/s | Papp A→B at 2 h, 10 µM [2, 8]: 24.2 ×10⁻⁶ cm/s | Papp A→B at 2 h, 10 µM [2, 9]: 26.6 ×10⁻⁶ cm/s | Papp B→A at 2 h, 10 µM [2, 10]: 24.5 ×10⁻⁶ cm/s | Papp B→A at 2 h, 10 µM [2, 11]: 23.6 ×10⁻⁶ cm/s | Papp B→A at 2 h, 10 µM [2, 12]: 25.4 ×10⁻⁶ cm/s | recovery at 2 h, 10 μM [2, 13]: 95% | recovery at 2 h, 10 μM [2, 14]: 88% | Significant Efflux (Caco-2 monolayers; Caco-2): No | Secreted Alkaline Phosphatase (percentage of GS ™-E ligand induction) Day 2 [3]: 85 percentage of GS ™-E ligand induction | Secreted Alkaline Phosphatase (percentage of GS ™-E ligand induction) Day 3 [3]: 79 percentage of GS ™-E ligand induction | Secreted Alkaline Phosphatase (percentage of GS ™-E ligand induction) Day 11 [3]: 1,116 percentage of GS ™-E ligand induction | solubility [4]: 1 µg/mL (≈ 2.7 µM) | chromatographic logP [5]: 4.35

CCC(N(NC(=O)c1cccc(C)c1C)C(=O)c1cc(C)cc(C)c1)C(C)(C)C (stereo not drawn) [RG-103309, 3,5-dimethyl-benzoic acid N′-(2,3-dimethyl-benzoyl)-N-(1-ethyl-2,2-dimethyl-propyl)-hydrazide]
Log(D) Octanol/pH 7.4 [1]: 3.0 | Papp at 2 h, 10 µM ([2]; Caco-2, pH 7, Papp Blank): 23.6 ×10⁻⁶ cm/s | recovery at 2 h, 10 μM [2, 6]: 70% | efflux ratio at 2 h, 10 μM ([2]; human, Caco-2, pH 7): 1.3 | Papp A→B at 2 h, 10 µM [2, 7]: 24.5 ×10⁻⁶ cm/s | Papp A→B at 2 h, 10 µM [2, 8]: 25.2 ×10⁻⁶ cm/s | Papp A→B at 2 h, 10 µM [2, 9]: 23.8 ×10⁻⁶ cm/s | Papp B→A at 2 h, 10 µM [2, 10]: 32.5 ×10⁻⁶ cm/s | Papp B→A at 2 h, 10 µM [2, 11]: 32.5 ×10⁻⁶ cm/s | Papp B→A at 2 h, 10 µM [2, 12]: 32.5 ×10⁻⁶ cm/s | recovery at 2 h, 10 μM [2, 13]: 74% | recovery at 2 h, 10 μM [2, 14]: 75% | Significant Efflux (Caco-2 monolayers; Caco-2): No | Secreted Alkaline Phosphatase Day 2 ([3]; IP 26 nmol ligand): 3,428 ng/ml mouse sera | Secreted Alkaline Phosphatase Day 3 ([3]; IP 26 nmol ligand): 2,800 ng/ml mouse sera | Secreted Alkaline Phosphatase Day 7 ([3]; IP 26 nmol ligand): 143 ng/ml mouse sera | Secreted Alkaline Phosphatase (percentage of GS ™-E ligand induction) Day 2 [3]: 251 percentage of GS ™-E ligand induction | Secreted Alkaline Phosphatase (percentage of GS ™-E ligand induction) Day 3 [3]: 298 percentage of GS ™-E ligand induction | solubility [4]: ≤ 0.2 µg/mL

COc1cccc(C(=O)NN(C(=O)c2cc(C)cc(C)c2)C(C)(C)C)c1C [RG-102398]
Log(D) Octanol/pH 7.4 [1]: 3.5 | recovery at 2 h, 10 μM [2, 6]: 94% | Papp at 2 h, 10 µM [2, 15]: 34.7 ×10⁻⁶ cm/s | efflux ratio at 2 h, 10 μM ([2]; human, Caco-2, pH 7): 1 | Papp A→B at 2 h, 10 µM [2, 16]: 26.9 ×10⁻⁶ cm/s | Papp A→B at 2 h, 10 µM [2, 17]: 26.8 ×10⁻⁶ cm/s | Papp B→A at 2 h, 10 µM [2, 18]: 28.2 ×10⁻⁶ cm/s | Papp A→B at 2 h, 10 µM [2, 8]: 27 ×10⁻⁶ cm/s | Papp B→A at 2 h, 10 µM [2, 10]: 27.1 ×10⁻⁶ cm/s | Papp B→A at 2 h, 10 µM [2, 11]: 25.9 ×10⁻⁶ cm/s | recovery at 2 h, 10 μM [2, 13]: 85% | recovery at 2 h, 10 μM [2, 14]: 90% | Absorption Potential (Caco-2 monolayers): High (Papp(A-to-B) ≧ 1.0 × 10^−6 cm/s High) | Significant Efflux (Caco-2 monolayers; [19]): No | solubility [4]: ≤ 0.2 µg/mL | logP [5]: 3.7

COc1ccc(C(=O)N(NC(=O)c2ccc3c(c2C)OCCO3)C(C)(C)C)c(OC)n1 [RG-115517, 2,6-dimethoxy-nicotinic acid N-tert-butyl-N′-(5-methyl-2,3-dihydro-benzo[1,4]dioxine-6-carbonyl)-hydrazide]
Log(D) Octanol/pH 7.4 [1]: 2.9 | Papp at 2 h, 10 µM ([2]; Caco-2, pH 7, Papp Blank): 31.6 ×10⁻⁶ cm/s | recovery at 2 h, 10 μM [2, 6]: 96% | efflux ratio at 2 h, 10 μM ([2]; human, Caco-2, pH 7): 0.9 | Papp A→B at 2 h, 10 µM [2, 7]: 28.8 ×10⁻⁶ cm/s | Papp A→B at 2 h, 10 µM [2, 8]: 28.4 ×10⁻⁶ cm/s | Papp A→B at 2 h, 10 µM [2, 9]: 29.3 ×10⁻⁶ cm/s | Papp B→A at 2 h, 10 µM [2, 10]: 26.4 ×10⁻⁶ cm/s | Papp B→A at 2 h, 10 µM [2, 11]: 25.2 ×10⁻⁶ cm/s | Papp B→A at 2 h, 10 µM [2, 12]: 27.6 ×10⁻⁶ cm/s | recovery at 2 h, 10 μM [2, 13]: 91% | recovery at 2 h, 10 μM [2, 14]: 95% | Significant Efflux (Caco-2 monolayers; Caco-2): No | Secreted Alkaline Phosphatase (percentage of GS ™-E ligand induction) Day 2 [3]: 4 percentage of GS ™-E ligand induction | Secreted Alkaline Phosphatase (percentage of GS ™-E ligand induction) Day 3 [3]: 3 percentage of GS ™-E ligand induction | solubility [4]: 14 µg/mL (≈ 32.6 µM) | chromatographic logP [5]: 3.15

CCc1c(OC)cccc1C(=O)NN(C(=O)c1cc(C)cc(C)c1)C(C)(C)C [RG-102240, N-(3-methoxy-2-ethylbenzoyl)-N′-(3,5-dimethylbenzoyl)-N′-tert-butylhydrazine]
Log(D) Octanol/pH 7.4 [1]: 3.4 | Papp at 2 h, 10 µM [2, 15]: 28.4 ×10⁻⁶ cm/s | recovery at 2 h, 10 μM ([2]; Caco-2, pH 7, cell-free (blank) membrane, 10 μM, read-out: Percent Recovery Blank): 78% | Papp A→B at 2 h, 10 µM [2, 16]: 31.8 ×10⁻⁶ cm/s | Papp B→A at 2 h, 10 µM ([2]; human, Caco-2, pH 7, Caco-2, 10 μM, average of 2 replicates, read-out: Papp, B-to-A Avg): 23.5 ×10⁻⁶ cm/s | Papp A→B at 2 h, 10 µM ([2]; human, Caco-2, pH 7, Caco-2, 10 μM, replicate 1, read-out: Papp, A-to-B Rep. 1): 32.3 ×10⁻⁶ cm/s | Papp B→A at 2 h, 10 µM ([2]; human, Caco-2, pH 7, Caco-2, 10 μM, replicate 1, read-out: Papp, B-to-A Rep. 1): 23.3 ×10⁻⁶ cm/s | Papp A→B at 2 h, 10 µM [2, 17]: 31.4 ×10⁻⁶ cm/s | Papp B→A at 2 h, 10 µM [2, 18]: 23.7 ×10⁻⁶ cm/s | recovery at 2 h, 10 μM ([2]; human, Caco-2, pH 7, Caco-2, apical-to-basolateral, 10 μM, read-out: Percent Recovery A-to-B): 94% | recovery at 2 h, 10 μM ([2]; human, Caco-2, pH 7, Caco-2, basolateral-to-apical, 10 μM, read-out: Percent Recovery B-to-A): 87% | efflux ratio at 2 h, 10 μM ([2]; human, pH 7, Caco-2 efflux ratio, read-out: Papp B-A / Papp A-B Ratio): 0.7 | Absorption Potential (Caco-2 monolayers): High (Papp(A-to-B) ≧ 1.0 × 10^−6 cm/s High) | Significant Efflux (Caco-2 monolayers; [19]): No | Secreted Alkaline Phosphatase Day 2 ([3]; IP 130 nmol ligand): 652 ng/ml mouse sera | Secreted Alkaline Phosphatase Day 3 ([3]; IP 130 nmol ligand): 1,780 ng/ml mouse sera | Secreted Alkaline Phosphatase Day 7 ([3]; IP 130 nmol ligand): 139 ng/ml mouse sera | Secreted Alkaline Phosphatase (percentage of GS ™-E ligand induction) Day 2 [3]: 100 percentage of GS ™-E ligand induction | Secreted Alkaline Phosphatase (percentage of GS ™-E ligand induction) Day 3 [3]: 100 percentage of GS ™-E ligand induction | Secreted Alkaline Phosphatase (percentage of GS ™-E ligand induction) Day 11 [3]: 100 percentage of GS ™-E ligand induction | solubility [4]: 0.7 µg/mL (≈ 1.83 µM) | logP [5]: 4.2 | chromatographic logP [5]: 4.2
